Measurements from US10813909B2 (THE REGENTS OF THE UNIVERSITY OF CALIFORNIA, priority 2016, dated 2020).
Entries after “also recorded” stand apart in the source; their conditions may differ.

How the values were obtained:
BIRC5 = experiment: Cardiac glycosides, BIRC5 expression in pancreatic cancer; format: cell-based
BIRC5 promoter = experiment: High-throughput drug screening with BIRC5 synthetic promoter; format: cell-based, human; conditions: high-throughput screening of FDA-approved drug libraries, MIA PaCa2 cells
Source text: FIG. 12 is a graph illustrating BIRC5 SP high-throughput (HTS) drug screening in MIA PaCa2 cells, in accordance with one or more embodiments of the invention;
Pancreatic ductal adenocarcinoma (PDAC) is one of the most deadly forms of cancer and almost all patients with PDAC succumb to this lethal disease within months of diagnosis. To fight against PDAC, we utilized the concept of an “actionable gene”, on which action can be taken to alter disease progression or guide choice of therapy. We have identified actionable gene, BIRC5, for PDAC using microarray data sets and our own RNA-Seq data of PDAC patient specimens. […] .

Capan2 cells = experiment: Cell viability, Capan2; format: cell-based, human; conditions: in vitro, with and without paclitaxel
AsPC1 cells = experiment: Cell viability, AsPC1; format: cell-based, human; conditions: in vitro
[1] = test system: patient-derived pancreatic cancer cell line #15 (PDCL-15); experiment: Cell viability/proliferation (CellTiter-Glo, Gaussia luciferase), patient-derived line #15; format: cell-based, human; conditions: in vitro; metformin 500 μM, simvastatin 4 μM, digoxin 50 nM, alone or combined; paclitaxel 100 nM where added
BIRC5 mRNA [2] = experiment: BIRC5 mRNA expression in PDCL5 in vitro; format: cell-based, human
PANC1 cells = experiment: Cell viability/proliferation, PANC1; format: cell-based, human; conditions: in vitro; metformin 500 μM, simvastatin 4 μM, digoxin 50 nM, alone or combined; paclitaxel 100 nM where added
BIRC5 mRNA [3] = experiment: BIRC5 mRNA expression in PDCL15 in vitro; format: cell-based, human
MIA PaCa2 cells = experiment: Cell viability/proliferation, MIA PaCa2; format: cell-based, human; conditions: in vitro; metformin 500 μM, simvastatin 4 μM, digoxin 50 nM, alone or combined; paclitaxel 100 nM where added
[4] = mice; cited from earlier work
[5] = test system: patient-derived pancreatic cancer cell line #5 (PDCL-5); experiment: Cell viability/proliferation (CellTiter-Glo, Gaussia luciferase), patient-derived line #5; format: cell-based, human; conditions: in vitro; metformin 500 μM, simvastatin 4 μM, digoxin 50 nM, alone or combined; paclitaxel 100 nM where added
DUSP15 and RHOB = experiment: Cell death/apoptosis related gene expression in PDCL5 (RNA-Seq, real-time PCR); conditions: PDCL5 in vitro
[6] = test system: pancreatic cancer cell lines; experiment: Proliferation, viability and apoptosis of pancreatic cancer cell lines in vitro (line not specified); format: cell-based, human
[7] = test system: HK2, LDHA, LDHB, ENO2, ENO1; experiment: Transcriptome analysis of glycolysis/TCA cycle/Warburg effect genes in pancreatic cancer cell lines; conditions: patient-derived and commercial pancreatic cancer cell lines

SMILES	BIRC5 expression in pancreatic cancer (BIRC5)	BIRC5 mRNA expression, PDCL #5 (BIRC5 mRNA [2])	BIRC5 mRNA expression, PDCL #15 (BIRC5 mRNA [3])	cell viability / proliferation, MIA PaCa2 (MIA PaCa2 cells)	also measured
C[C@]12CC[C@H](O)C[C@H]1CC[C@@H]1[C@@H]2CC[C@]2(C)[C@@H](C3=CC(=O)OC3)CC[C@]12O [Digitoxigenin]	inhibit BIRC5 expression	–	–	–	–
C[C@H]1O[C@@H](O[C@H]2[C@@H](O)C[C@H](O[C@H]3[C@@H](O)C[C@H](O[C@H]4CC[C@@]5(C)[C@H](CC[C@@H]6[C@@H]5C[C@@H](O)[C@]5(C)[C@@H](C7=CC(=O)OC7)CC[C@]65O)C4)O[C@@H]3C)O[C@@H]2C)C[C@H](O)[C@@H]1O [Digoxin, digoxin]	inhibit BIRC5 expression	suppress	suppress	suppresses; also recorded: suppress	expression from the BIRC5 promoter (BIRC5 promoter): target BIRC5; cell viability, Capan2 (Capan2 cells): suppress; cell viability, AsPC1 (AsPC1 cells): suppress; cell viability / proliferation, patient-derived pancreatic cancer cell #15 [1]: suppresses; also recorded: suppress; cell viability / proliferation, PANC1 (PANC1 cells): suppresses; also recorded: suppress; Lethal Dose (LD50) [4]: 4 mg/kg; cell viability / proliferation, patient-derived pancreatic cancer cell #5 [5]: suppresses; also recorded: suppress; cell death/apoptosis related gene expression (DUSP15, RHOB) (DUSP15 and RHOB): do not have an effect
CC(=O)O[C@H]1C[C@H](O[C@H]2[C@@H](O)C[C@H](O[C@H]3[C@@H](O)C[C@H](O[C@H]4CC[C@@]5(C)[C@H](CC[C@@H]6[C@@H]5C[C@@H](O)[C@]5(C)[C@@H](C7=CC(=O)OC7)CC[C@]65O)C4)O[C@@H]3C)O[C@@H]2C)O[C@H](C)[C@H]1O[C@@H]1O[C@H](CO)[C@@H](O)[C@H](O)[C@H]1O [Lanatoside C]	inhibit BIRC5 expression	–	–	–	–
CC[C@H](C)C(=O)O[C@H]1C[C@@H](C)C=C2C=C[C@H](C)[C@H](CC[C@@H]3C[C@@H](O)CC(=O)O3)[C@H]21 [Lovastatin, lovastatin]	–	suppress	suppress	suppresses	–
CN(C)C(=N)N=C(N)N [Metformin, metformin]	–	suppress	suppress	suppresses; also recorded: suppress	expression from the BIRC5 promoter (BIRC5 promoter): target BIRC5; cell viability, Capan2 (Capan2 cells): suppress; cell viability, AsPC1 (AsPC1 cells): suppress; cell viability / proliferation, patient-derived pancreatic cancer cell #15 [1]: suppresses; also recorded: suppress; cell viability / proliferation, PANC1 (PANC1 cells): suppresses; also recorded: suppress; cell proliferation / viability, pancreatic cancer cell lines [6]: suppresses; glycolysis / TCA cycle / Warburg effect related gene expression [7]: inhibitory effect; cell viability / proliferation, patient-derived pancreatic cancer cell #5 [5]: suppresses; also recorded: suppress; cell death/apoptosis related gene expression (DUSP15, RHOB) (DUSP15 and RHOB): do not have an effect
C[C@@H]1O[C@@H](O[C@H]2C[C@@H](O)[C@]3(CO)[C@H]4[C@H](O)C[C@]5(C)[C@@H](C6=CC(=O)OC6)CC[C@]5(O)[C@@H]4CC[C@]3(O)C2)[C@H](O)[C@H](O)[C@H]1O [Ouabain, ouabain]	inhibit BIRC5 expression	–	–	suppresses	–
C[C@]12CC[C@H](O)C[C@H]1CC[C@@H]1[C@@H]2CC[C@]2(C)[C@@H](c3ccc(=O)oc3)CC[C@]12O [bufalin]	inhibit BIRC5 expression	–	–	–	–
CC(C)n1c(/C=C/C(O)CC(O)CC(=O)O)c(-c2ccc(F)cc2)c2ccccc21 (centres unmarked) [fluvastatin]	–	suppress	suppress	suppresses	–
